In data set [1] the test system is Candida albicans TIMM1623. Kind of data set: In vivo test: murine systemic infection caused by Candida albicans. To be noted: ICR mice, day 21 after infection, once daily, 7 times. The protocol: In vivo activity was evaluated in murine systemic infection caused by Candida albicans.
(§1) Mice (4-week old (at infection) male ICR mice, 5 mice per group) were intraperitoneally administered 200 mg/kg of cyclophosphamide 4 days before infection and 100 mg/kg on the following day after infection. Candida albicans TIMM1623, which were prepared from overnight culture on a Sabouraud Dextrose Agar plate at 35° C., were suspended in sterile physiological saline solution. After counting cell number of the suspension with a biological microscope, the suspension was diluted with sterile physiological saline solution to give the inoculum solution. Systemic infection was induced in mice by intravenous inoculation of 0.2 mL of the inoculum solution into the tail vein (2.6×10^4 CFU/mouse).
(§2) The test compound was dissolved in a small amount of 0.1 mol/L hydrochloric acid, and the solution was diluted with sterilized water to prepare predetermined concentrations.
Fluconazole (a commercial name: FLANOS intravenous drip solution 100 mg, made by Toyama Chemical Co., Ltd.) was diluted with sterilized water to prepare fluconazole solutions of predetermined concentrations.
Micafungin sodium (a commercial name: Funguard 50 mg for infusion, made by Astellas Pharma Inc.) was dissolved in sterile physiological saline solution to prepare micafungin solutions of predetermined concentrations.
Amphotericin B for injection (a commercial name: FUNGIZONE, made by Bristol pharmaceutical Ltd.) was dissolved in 5% glucose to prepare an amphotericin B solution of a predetermined concentration.
The test compound (0.25 and 0.5 mg/kg) and fluconazole (0.25 and 0.5 mg/kg) were orally administered. Micafungin (0.125 and 0.25 mg/kg) and amphotericin B (0.1 mg/kg) were subcutaneously administered. These administrations were conducted once 2 hours after the infection and then once daily for the following 6 days, totaling 7 times.
On one hand each of the agents was administered singly, on the other hand each of the agents was administered immediately after the test compound was administered.
The efficacy was evaluated on the basis of the survival rate on day 21 after infection.

Data set [2] has as its system Cryptococcus neoformans ATCC90112. Kind of data set: In vivo test: murine systematic infection caused by Cryptococcus neoformans. To be noted: ICR mice, day 21 after infection, once daily, 7 times. The procedure: In vivo activity was evaluated in murine systematic infection caused by Cryptococcus neoformans.
as §1, with “Cryptococcus neoformans ATCC90112 cells,” for “Candida albicans TIMM1623,”, “Systematic” for “Systemic”, “injection” for “inoculation”, “(8.5×10^4” for “(2.6×10^4”
The test compound was dissolved in a small amount of 0.1 mol/L hydrochloric acid, and the solution was diluted with sterilized water to prepare predetermined concentrations. […]
(§3) On one hand each of the agents was administered singly, on the other hand each of the agents was administered immediately after the test compound was administered. The efficacy was evaluated on the basis of the survival rate on day 21 after infection.

Data set [3] relates to Aspergillus fumigatus IFM46895. Kind of data set: In vivo test: murine systemic infection caused by Aspergillus fumigatus. To be noted: for Survival rate: ICR mice, day 21 after infection, once daily, 7 times. The protocol:
In vivo activity was evaluated in murine systemic infection caused by Aspergillus fumigatus.
Mice (4-week old (at infection) male ICR mice, 5 mice per group) were intraperitoneally administered 200 mg/kg of cyclophosphamide 4 days before infection and 100 mg/kg on the following day after infection. Conidia suspension of Aspergillus fumigatus IFM46895 was diluted with sterile physiological saline solution containing 0.05% Tween 80 (manufactured by Difco Laboratories) in sterile physiological saline solution to give the inoculum solution. Systemic infection was induced in mice by intravenous inoculation of 0.2 mL of the inoculum solution into the tail vein (1.6×10^5 CFU/mouse).
as §2
Flucytosine (made by Sigma Company) was suspended in 0.5% methyl cellulose liquid to prepare predetermined concentrations for administration.
Voriconazole (a commercial name: Vfend 200 mg for intravenous use, made by Pfizer Inc.) was diluted with sterilized water to prepare voriconazole solutions of predetermined concentrations for administration.
The test compound (1 and 3 mg/kg), flucytosine (50 and 250 mg/kg) and voriconazole (5 and 10 mg/kg) were orally administered. The administrations were conducted once 2 hours after the infection and then once daily for the following 6 days, totaling 7 times.
as §3

A short description of data set [4]: Toxicity on consecutive oral administration to mice. In kind it is in vivo. The note with it: orally administered consecutively at 25 mg/kg for 2 weeks.
The test system of data set [5] is Aspergillus fumigatus IFM46895. The note with it: general statement ("as usual"); cited from earlier work.

Numbered stars: 1 amine (or outer) side, 2 acyl side, 3 side chain; on linkers, the order of the positions; unused ones are H or OH. Bridge positions count the residues as written; N and C are the ends. Square brackets hold non-standard residues; d marks the D form. Peptide text beside a SMILES is read from it. * marks the point of attachment. hTyr(3S-OH,4S-OH,3'-OSO3H) = N[C@H](C(=O)O)[C@H](O)[C@@H](O)c1ccc(O)c(OS(=O)(=O)O)c1; Orn(4R-OH,5R-OH) = O=C([C@H](C[C@@H](O)[C@@H](O)N[*:3])N[*:1])[*:2]; Pro(3S-OH,4S-Me) = C[C@H]1CN[C@H](C(=O)O)[C@H]1O; X1 = CCCCCOc1ccc(-c2cc(-c3ccc(C(=O)*)cc3)no2)cc1; Gln(3R-OH) = NC(=O)C[C@@H](O)[C@H](N)C(=O)O; Hyp = O=C(O)[C@@H]1C[C@@H](O)CN1

Consider `C[C@@H]1[C@H](O)[C@@H](C)/C=C/C=C/C=C/C=C/C=C/C=C/C=C/[C@H](O[C@@H]2O[C@H](C)[C@@H](O)[C@H](N)[C@@H]2O)C[C@@H]2O[C@](O)(C[C@@H](O)C[C@@H](O)[C@H](O)CC[C@@H](O)C[C@@H](O)CC(=O)O[C@H]1C)C[C@H](O)[C@H]2C(=O)O` [AMPH-B, amphotericin B], for which the Survival rate in data set [1] (AMPH-B 0.1 mg/kg subcutaneously) amounted to 20.

Regarding `OC(Cn1cncn1)(Cn1cncn1)c1ccc(F)cc1F` [FLCZ, fluconazole], the figures for the Survival rate in data set [1] (FLCZ 0.25 mg/kg orally), in data set [1] (FLCZ 0.5 mg/kg orally) and in data set [2] (FLCZ 20 mg/kg orally) were 20, 40 and 20, respectively.

Consider `CCCCCOc1ccc(-c2cc(-c3ccc(C(=O)N[C@H]4C[C@@H](O)[C@@H](O)NC(=O)[C@@H]5[C@@H](O)[C@@H](C)CN5C(=O)[C@H]([C@H](O)CC(N)=O)NC(=O)[C@H]([C@H](O)[C@@H](O)c5ccc(O)c(OS(=O)(=O)O)c5)NC(=O)[C@@H]5C[C@@H](O)CN5C(=O)[C@H]([C@@H](C)O)NC4=O)cc3)no2)cc1` [MCFG, micafungin] (X1-[Orn(4R-OH,5R-OH)]T[Hyp][hTyr(3S-OH,4S-OH,3'-OSO3H)][Gln(3R-OH)][Pro(3S-OH,4S-Me)]; lactam 1-C), for which the Survival rate is on record as 0 in data set [1] (MCFG 0.125 mg/kg subcutaneously) and 40 in data set [1] (MCFG 0.25 mg/kg subcutaneously).

Take `CCCCOC(=O)N=C(N)c1ccc(OCCCC2CCN(CCCOc3ccc(C(N)=NC(=O)OCCCC)cc3)CC2)cc1` [Test compound, 4-{3-[4-(3-{4-[amino(butoxycarbonylimino)methyl]phenoxy}propyl)-1-piperidinyl]propoxy}-N′-(butoxycarbonyl)benzamidine]: the Survival rate in data set [3] (test compound 1 mg/kg orally) stood at 0; in data set [3] (test compound 3 mg/kg orally) it was 20; in data set [1] (test compound 0.5 mg/kg orally), 0; in data set [2] (test compound 1 mg/kg orally), 0. For the same molecule, in data set [4], the Toxicity result is “did not show toxicity at all”.

In data set [3] (5-FC 250 mg/kg orally), `Nc1[nH]c(=O)ncc1F` [Example 5-FC, flucytosine] gave a Survival rate of 0. Further, in data set [3] (murine systemic infection, flucytosine 250 mg/kg administered singly), the Therapeutic effect entry is listed as “no therapeutic effect”. For the same molecule, in data set [5], the “Effect against Aspergillus fumigatus” value was “almost no effect”.

`C[C@@H](c1ncncc1F)[C@](O)(Cn1cncn1)c1ccc(F)cc1F` [VCZ, voriconazole] registered a Survival rate in data set [3] (VCZ 10 mg/kg orally) of 0.
